Test results as given in patent US8420823B2, “Long-chain fatty acyl elongase inhibitor comprising arylsulfonyl derivative as active ingredient” (MSD K.K., priority 2008, dated 2013).

Each molecule was assayed against T1, human LCE (Homo sapiens, UniProt Q9H5J4) (assay: LCE enzyme activity-inhibitory test). Details: [14C]-malonyl CoA / palmitoyl CoA substrate, 37° C., 90 minutes.
T1 sequence (Q9H5J4 1-265): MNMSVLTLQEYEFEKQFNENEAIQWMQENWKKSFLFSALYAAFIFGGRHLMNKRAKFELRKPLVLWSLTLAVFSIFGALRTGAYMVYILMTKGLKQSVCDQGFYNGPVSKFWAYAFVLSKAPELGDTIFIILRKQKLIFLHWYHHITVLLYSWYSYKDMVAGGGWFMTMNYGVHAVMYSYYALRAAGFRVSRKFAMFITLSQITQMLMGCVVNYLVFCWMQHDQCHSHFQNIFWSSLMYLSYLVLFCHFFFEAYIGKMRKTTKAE
Format: biochemical
Method in brief: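 Human LCE (100 μg/mL in enzyme solution) was incubated 90 min at 37 °C in 100 mM potassium phosphate pH 6.5 with palmitoyl CoA, malonyl CoA, [14C]-malonyl CoA, rotenone and fatty acid-free BSA. Acid-stopped, hydrolyzed products were captured on GF/C filters and counted by scintillation. Inhibition was calculated against DMSO control.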

For `CC(C)Oc1ccc(NC(=O)c2cc(S(=O)(=O)N3CCCCC3)ccc2OCC(=O)O)cc1` [Example 154, [2-{[(4-Isopropoxyphenyl)amino]carbonyl}-4-(piperidin-1-ylsulfonyl)phenoxy]acetic acid], which IC50 is on record?
The IC50 was 300 nM.

How did the IC50 turn out when `COc1ccc(C(=O)Nc2ccc(C(C)C)cc2)cc1S(=O)(=O)N1CCCCC1` [Example 155, N-(4-isopropylphenyl)-4-methoxy-3-(piperidin-1-ylsulfonyl)benzamide] was run?
Its IC50 is 5700 nM.

How did the IC50 turn out when `COc1ccc(S(=O)(=O)N2CCCCC2)cc1C(=O)Nc1ncccc1OC` [Example 156, 2-Methoxy-N-(3-methoxypyridin-2-yl)-5-(piperidin-1-ylsulfonyl)benzamide] was run?
Its IC50 is 150 nM.

For `CC(C)c1ccc(NC(=O)c2cccc(S(=O)(=O)c3ccccc3)n2)cc1` [Example 157, N-(4-isopropylphenyl)-6-(phenylsulfonyl)pyridine-2-carboxamide], which IC50 is on record?
Its IC50 is 1400 nM.

`CC(C)c1ccc(NC(=O)c2cncc(S(=O)(=O)c3ccccc3)c2)cc1` [Example 158, N-(4-isopropylphenyl)-5-(phenylsulfonyl)nicotinamide] was tested. Which IC50 did it give?
Its IC50 is 3400 nM.

Which IC50 does the source give for `CC(C)Oc1ccc(C(=O)NCc2cccc(S(=O)(=O)N3CCCCC3)c2)cc1` [Example 159, 4-Isopropoxy-N-[3-(piperidin-1-ylsulfonyl)benzyl]benzamide] here?
Its IC50 is 230 nM.

For `CC(C)Oc1ccc(NC(=O)Cc2cccc(S(=O)(=O)N3CCCCC3)c2)cc1` [Example 160, N-(4-isopropoxyphenyl)-2-[3-(piperidin-1-ylsulfonyl)phenyl]acetamide], which IC50 is on record?
The IC50 was 130 nM.

For `CC(C)Oc1ccc(C(=O)NCCc2cccc(S(=O)(=O)N3CCCCC3)c2)cc1` [Example 161, 4-Isopropoxy-N-{2-[3-(piperidin-1-ylsulfonyl)phenyl]ethyl}benzamide], which IC50 is on record?
The IC50 was 4800 nM.

For `CC(C)Oc1ccc(NC(=O)CCc2cccc(S(=O)(=O)N3CCCCC3)c2)cc1` [Example 162, N-(4-isopropoxyphenyl)-3-[3-(piperidin-1-ylsulfonyl)phenyl]propanamide], which IC50 is on record?
Its IC50 is 1500 nM.
